Measured values from patent publication US4150970A, “Growth regulator for plants” (Board of Trustees of Michigan State University, priority 1977, dated 1979).

Experiments:
[1] = system: plants; experiment: Plant growth regulation (general statement); assay type: in vivo; settings: crops
[2] = system: IR-8 rice seedlings; experiment: Growth analysis (NAR, RGR, LAR) of IR-8 rice seedlings (Example V); assay type: in vivo
Experimental: (§1) Rice seed cv. IR-8, or Starbonnet was surface treated with 0.1 percent mercuric chloride and planted in 77 cc plastic cups containing vermiculite and watered with one-fourth Hoagland's nutrient solution containing 3 mM of nitrogen at pH 5.0. After 10 days, seedlings were transplanted to 220 cc specimen cups wrapped in aluminum foil and containing 180 cc of the same Hoagland's nutrient solution. Four seedlings were suspended in the solution with a sponge rubber disc. The plants were grown under a 8 h night at 25° C. and a 16 h day at 30° C. with 21 and 8 μwatts per cm^2 in the blue and red spectra respectively. In the test with varying light intensity the high light intensity was 30 13 and the low intensity was 15 and 8 μwatts per cm^2 for the blue and red spectra respectively. The nutrient solution was renewed every 2 or 3 days. After one week the plants were sorted for size and similar sized plants assigned to the same block for the experiment. Prior to the initiation of a test the plants in each cup were assigned treatment numbers by use of a random number table. […] Sixteen hours prior to a test the foil wrapped cups were tared, and filled with one-half Hoaglands solution containing 6 mM nitrogen. Eighteen μl of chloroform or chloroform containing 1.8 μg triacontanol were placed on 2 cm^2 of Whatman No. 1 filter papers, air dried and placed in the specimen cups. This concentration of 10 μg triacontanol/liter was used for all tests described in the following Examples except where specifically indicated to the contrary. Immediately prior to the test the cups were all brought up to 180 ml. including a set of cups without plants to measure evaporation.
The plants were disected at harvest into shoots and roots. The expanded leaves were cut at the ligule and the newest leaf at the point it entered the sheath. The surface area of expanded leaves were measured using a Lambda Model LI-3000 planimeter. The plants were dried to constant weight in an oven at 100° C. and the roots, expanded leaves, and sheaths were weighed separately.
Growth analysis was conducted according to Evans (1972). The Net Assimulation Rate (NAR) is the increase in plant weight per unit of leaf area over time interval where: W=total weight per plant in mg, T=time in days, and L=leaf area in cm^2. [formula]
The relative growth rate (RGR) is the increase in plant weight per unit of original weight over a time interval and is obtained by: [formula]
The leaf area ratio is the ratio of leaf area to […] over a time interval. [formula]
IR-8 rice seedlings were grown as above explained and were tested at 8 hour, 24 hour, 72 hour, and 216 hour intervals. Control (no treatment) plants are indicated by "0" and triacontanol treated plants are indicated by "+" in Table V. The Net Assimulation Rate (NAR), the Relative Growth Rate (RGR) and the Lead Area Ratio (LAR) was determined for each plant at each interval.

[3] = system: oat first-internode; settings: published reports; cited from earlier work
[4] = system: Mich. 396 Field Corn; experiment: Single and multiple applications on field corn at two fertility levels (Example XIV); assay type: in vivo
Experimental: Tests were run to study the effect of single and multiple applications of triacontanol on the growth of "Mich. 396 Field Corn" grown at two Fertility Levels in a greenhouse soil. Plants were treated at 14 days after planting and were harvested 37 days after planting. The following results were obtained (Table XIV).

[5] = system: tobacco callus; experiment: Growth of tobacco callus, triacontanol and octocosanol (Example XIX, FIG. 6); assay type: cell-based, Nicotiana tabacum, var. Wisconsin 38; settings: 10 days; for growth over the control: four concentrations
Experimental: Cell cultures were separately grown in disposable petri dishes.
1. Haploid tobacco (Nicotiana tabacum, var. Wisconsin 38)
The cultures were grown on the basic medium of mineral salts described by Linsmaier and Skoog (Physiol. Plant, […] (1965)). Vitamins and hormones varied for each tissue (Table X-1) to maintain the tissues in an undifferentiated state. For all of the tissues inositol was 100 mg/liter and agar 1%. Sucrose was 3% for all but the bean which was 2%.
Callus was produced from pith for tobacco, potato and tomato. Bean callus was produced from hypocotyl sections and barley callus from immature ovarian tissue. Subcultures were maintained on the appropriate media.
Stock solutions of triacontanol were prepared at a concentration of 100 μg/ml. The solvent used was glass distilled benzene. The lower concentrations were obtained by serial dilutions. Treatments were applied to 4.5 cm Whatman #1 filter paper disks in 100 μl aliquots. Controls received 100 μl of glass distilled benzene. The solvent was evaporated for approximately 15 minutes and the filter papers were then placed on the agar medium.
Callus tissue was then broken into pieces of approximately the same size (10 mg) and placed in the petri dishes on the treated filter paper (one piece per dish). For experiments conducted in the light the intensity was approximately 2.0 microwatts/cm^2 -namometer. Fresh weight measurements were made after 12 days of growth.
A stock solution of octocosanol (CH3 (CH2)26 CH2 OH was prepared in the same manner as the triacontanol solutions above described.
The effect of four concentrations of triacontanol and octocosanol on tobacco callus was determined, using the materials and procedures above described in this Example. The dishes were tared and weighed at the end of 10 days. The results are illustrated in FIG. 6 of the drawings.

[6] = system: IR-8 rice seedlings; experiment: Percent change in dry weight of rice seedlings in the dark (Example XVIII); assay type: in vivo; settings: 0.01 mg/l
Experimental: as §1
This example was run to determine the percent change in dry weight of whole 15-day-old "IR-8" rice seedlings treated with triacontanol in the dark as compared with a control. The dry weight at zero time was 37.3 mg per seedling. […]

**Q.** For `CCCCCCCCCCCCCCCCCCCCCCCCCCCCCCO` [Triacontanol, 1-triacontanol], which “application rate that substantially increases crop growth” value [1] is on record?
**A.** The value was no less than 0.4 grams per acre.

**Q.** What about the “LAR (Leaf Area Ratio)” value ([2]; 0-8 hours) of the same molecule?
**A.** Its value is 0.16.

**Q.** What about the “NAR (Net Assimulation Rate)” value ([2]; 0-8 hours) of the same molecule?
**A.** The value was 3.39 mg plant wt per cm^2 per day.

**Q.** What about the “RGR (Relative Growth Rate)” value ([2]; 0-8 hours) of the same molecule?
**A.** The value was 0.52 mg dry weight per mg original.

**Q.** And the “LAR (Leaf Area Ratio)” value ([2]; 9-24 hours)?
**A.** The value was 0.15.

**Q.** And the “NAR (Net Assimulation Rate)” value ([2]; 9-24 hours)?
**A.** Its value is 0.90 mg plant wt per cm^2 per day.

**Q.** What about the “RGR (Relative Growth Rate)” value ([2]; 9-24 hours) of the same molecule?
**A.** The value was 0.14 mg dry weight per mg original.

**Q.** What about the “LAR (Leaf Area Ratio)” value ([2]; 25-72 hours) of the same molecule?
**A.** Its value is 0.16.

**Q.** What about the “NAR (Net Assimulation Rate)” value ([2]; 25-72 hours) of the same molecule?
**A.** Its value is 1.03 mg plant wt per cm^2 per day.

**Q.** What about the “RGR (Relative Growth Rate)” value ([2]; 25-72 hours) of the same molecule?
**A.** Its value is 0.17 mg dry weight per mg original.

**Q.** What about the “LAR (Leaf Area Ratio)” value ([2]; 73-216 hours) of the same molecule?
**A.** The value was 0.13.

**Q.** What about the “NAR (Net Assimulation Rate)” value ([2]; 73-216 hours) of the same molecule?
**A.** The value was 1.15 mg plant wt per cm^2 per day.

**Q.** And the “RGR (Relative Growth Rate)” value ([2]; 73-216 hours)?
**A.** Its value is 0.15 mg dry weight per mg original.

**Q.** And the “net assimilation (NAR) greater than control plants” value ([2]; first 8 hour and subsequent 16 hour period)?
**A.** The value was 37%.

**Q.** What about the “growth, oat first-internode method” value [3] of the same molecule?
**A.** The value was “not active”.

**Q.** What about the “Dry Weight” value ([4]; high fertility, 1 application) of the same molecule?
**A.** The value was 2.032 g/plant.

**Q.** What about the “Dry Weight” value ([4]; high fertility, 5 applications) of the same molecule?
**A.** Its value is 1.913 g/plant.

**Q.** And the “Dry Weight” value ([4]; low fertility, 1 application)?
**A.** Its value is 1.297 g/plant.

**Q.** What about the “Dry Weight” value ([4]; low fertility, 5 applications) of the same molecule?
**A.** The value was 1.696 g/plant.

**Q.** What about the “optimum concentration for growth” value [5] of the same molecule?
**A.** Its value is 0.1 μg per dish.

**Q.** And the “growth over the control” value ([5]; listed as 1-triacontanol)?
**A.** The value was “significant increases in growth”.

**Q.** And the “growth over the control” value ([5]; listed as triacontanol)?
**A.** The value was “significant increases in growth over the control”.

**Q.** And the “Dry Weight (percent change)” value ([6]; 1 hour)?
**A.** Its value is 4%.

**Q.** And the “Dry Weight (percent change)” value ([6]; 3 hours)?
**A.** The value was 6%.

**Q.** And the “Dry Weight (percent change)” value ([6]; 6 hours)?
**A.** Its value is 10%.
